Source: ChEMBL document CHEMBL3351796, “Discovery of potent and selective sirtuin 2 (SIRT2) inhibitors using a fragment-based approach” (J Med Chem, 2014)
pIC50: −log10 of the molar value.

Columns and labels:
[1] = test system: MCF7; assay: cells; details: Homo sapiens, MCF7, 48 h
Description: Cytotoxicity against human MCF7 cells assessed as reduction in cell growth incubated for 48 hrs by alamar blue assay

[2] = molecular target: T1, NAD-dependent protein deacetylase sirtuin-2 (Homo sapiens, UniProt Q8IXJ6); assay: Inhibition of full length human SIRT2 expressed in Escherichia coli BL21 (DE3) cells using fluorogenic 7-amino-4-methylcoumarin (AMC)-labeled peptide by fluorescence assay
T1 sequence (Q8IXJ6 whole entry): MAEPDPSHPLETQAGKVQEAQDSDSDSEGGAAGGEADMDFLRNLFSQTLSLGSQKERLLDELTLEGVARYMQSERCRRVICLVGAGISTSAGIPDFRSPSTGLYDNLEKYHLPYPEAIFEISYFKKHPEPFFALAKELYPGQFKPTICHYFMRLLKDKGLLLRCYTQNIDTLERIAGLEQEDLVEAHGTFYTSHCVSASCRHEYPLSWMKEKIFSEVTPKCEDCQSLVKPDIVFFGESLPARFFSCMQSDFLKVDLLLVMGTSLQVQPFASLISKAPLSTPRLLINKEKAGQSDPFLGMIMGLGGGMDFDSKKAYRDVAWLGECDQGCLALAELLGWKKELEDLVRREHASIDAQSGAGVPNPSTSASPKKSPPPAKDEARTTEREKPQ

[3] = Apparent permeability from apical to basolateral side in MDCK2 cells at 25 uM incubated for 15 to 180 mins by HPLC method; assay type: ADME, cell-based, Canis lupus familiaris, MDCK-II; details: dog, MDCK
[4] = test system: K562; assay: cells; details: Homo sapiens, K562, 48 h
Description: Cytotoxicity against human K562 cells assessed as reduction in cell growth incubated for 48 hrs by alamar blue assay

[5] = Apparent permeability from basolateral to apical side in MDCK2 cells at 25 uM incubated for 15 to 180 mins by HPLC method; assay type: ADME, cell-based, Canis lupus familiaris, MDCK-II; details: dog, MDCK
[6] = test system: DU-145; assay: cells; details: Homo sapiens, DU-145, 48 h
Description: Cytotoxicity against human DU145 cells assessed as reduction in cell growth incubated for 48 hrs by alamar blue assay

## NC(=O)c1cncc(Oc2cccc3c(NC(=O)c4ccccc4)cccc23)c1
[1]
  CC50: 30.6 µM
[2]
  pIC50: 7.32
[3]
  Papp A→B at 25 µM: 3.84 ×10⁻⁶ cm/s
[4]
  CC50: 26.2 µM
[5]
  Papp B→A at 25 µM: 4.35 ×10⁻⁶ cm/s
[6]
  CC50: 33.3 µM
